{"source": "BindingDB's records for doi:10.1073/pnas.88.17.7491", "about": "(Duke University, 1991)", "data": [{"molecular_target": "D(1A) dopamine receptor (Homo sapiens, UniProt P21728)", "sequence (P21728 whole entry)": "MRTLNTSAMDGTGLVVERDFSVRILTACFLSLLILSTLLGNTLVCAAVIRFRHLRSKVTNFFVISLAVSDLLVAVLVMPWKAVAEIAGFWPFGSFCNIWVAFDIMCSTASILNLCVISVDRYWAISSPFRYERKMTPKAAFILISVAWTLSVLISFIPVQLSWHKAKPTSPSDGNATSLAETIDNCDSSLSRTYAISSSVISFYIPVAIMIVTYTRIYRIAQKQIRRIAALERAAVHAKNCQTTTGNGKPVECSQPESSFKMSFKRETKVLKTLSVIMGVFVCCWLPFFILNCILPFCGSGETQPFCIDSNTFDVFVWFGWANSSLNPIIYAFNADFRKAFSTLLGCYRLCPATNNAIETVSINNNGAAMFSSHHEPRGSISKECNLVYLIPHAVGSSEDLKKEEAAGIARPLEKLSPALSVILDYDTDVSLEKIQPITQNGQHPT", "units": {"Ki": "nM"}, "values": [{"smiles": "O=C(O)c1ccccc1C(=O)Nc1cccc2ccccc12", "note": "[NPA,(+)]", "Ki": 1540}, {"smiles": "OCCC1CCN(CCC=C2c3ccc(F)cc3Sc3ccc(C(F)(F)F)cc32)CC1", "note": "[CAS_60197-32-2]", "Ki": 0.65}, {"smiles": "CN1CCN(C2=Nc3cc(F)ccc3Cc3ccccc32)CC1", "Ki": 75}]}]}
